Source: paper PMC9274761, “Effects of Structurally Different HDAC Inhibitors against Trypanosoma cruzi, Leishmania, and Schistosoma mansoni” (ACS Infectious Diseases, 2022)

Legend:
HDAC2 = HDAC2 (Homo sapiens, UniProt Q92769); assay: HDAC2 protease-coupled fluorescence (AMC) inhibition assay; assay type: biochemical; conditions: hr enzyme, 10-dose, 3-fold dilution from 50 μM (3: from 300 μM); read-out: IC50 against HDAC2
Text: The new hydroxamates 2 and 6 were screened and profiled via a protease-coupled assay in which the quantification of HDAC enzyme activity is based on the formation of a free fluorescent group, the 7-amino-4-methyl coumarin (AMC).[42] […] After deacetylation by HDACs, the de(trifluoro)acetylated AMC–peptides were sensitive toward lysine peptidase and free fluorogenic AMC was generated and quantified.[42]
To gain insights into its inhibition profile for human HDACs, we tested 3 against hrHDACs 1–6 and 8 following the above procedure (Table 1).
Individual IC50 values for each HDAC isozyme were measured with the homogeneous fluorescence release HDAC assay.[42]

[1] = tested on: T. cruzi amastigotes and trypomastigotes; assay: T. cruzi infection assay in L929 cells (beta-galactosidase Tulahuen strain); assay type: cell-based, Trypanosoma cruzi; conditions: infected L929 cells, 96 h; for EC50, growth of T. cruzi amastigotes and trypomastigotes: mean ± SD
[2] = tested on: L. amazonensis promastigotes; assay: Resazurin reduction assay, L. amazonensis promastigotes; assay type: cell-based; conditions: Leishmania amazonensis, read-out: percentage of inhibition, L. amazonensis promastigotes
[3] = tested on: L. donovani axenic amastigotes; assay: Resazurin reduction assay, L. donovani axenic amastigotes; assay type: cell-based; conditions: Leishmania donovani, read-out: percentage of inhibition, L. donovani axenic amastigotes
in vitro = conditions: mouse, noninfected L929 fibroblast cells
[4] = Trypanosoma cruzi, read-out: percentage of T. cruzi growth inhibition
[5] = Trypanosoma cruzi, toxic = L929 death, read-out: percentage of T. cruzi growth inhibition

Sequence of HDAC2 (Q92769 whole entry): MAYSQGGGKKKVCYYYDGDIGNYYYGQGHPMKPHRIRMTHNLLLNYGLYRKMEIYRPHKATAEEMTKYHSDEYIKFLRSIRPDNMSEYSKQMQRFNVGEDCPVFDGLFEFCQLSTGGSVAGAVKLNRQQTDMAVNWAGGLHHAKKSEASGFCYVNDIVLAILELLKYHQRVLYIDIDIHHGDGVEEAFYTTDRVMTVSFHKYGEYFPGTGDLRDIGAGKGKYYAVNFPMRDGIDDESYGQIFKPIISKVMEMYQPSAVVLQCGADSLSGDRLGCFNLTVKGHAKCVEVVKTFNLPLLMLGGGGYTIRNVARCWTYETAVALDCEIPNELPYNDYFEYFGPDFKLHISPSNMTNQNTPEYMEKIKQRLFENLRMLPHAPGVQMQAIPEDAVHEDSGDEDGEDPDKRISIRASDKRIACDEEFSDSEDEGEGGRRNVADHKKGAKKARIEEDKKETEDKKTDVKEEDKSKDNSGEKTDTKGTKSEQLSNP

Compound | IC50 (HDAC2) [µM] | percentage of T. cruzi growth inhibition ([1]; 40 μM, toxic = L929 death) | percentage of T. cruzi growth inhibition ([1]; 80 μM, toxic = L929 death) | percentage of T. cruzi growth inhibition ([1]; 160 μM, toxic = L929 death) | inhibition at 1.25 µM [1, 4] [%] | inhibition at 2.5 µM [1, 5] [%] | inhibition at 5 µM [1, 5] [%] | inhibition at 10 µM ([1]; Trypanosoma cruzi, 10 μM, toxic = L929 death, read-out: percentage of T. cruzi growth inhibition) [%] | inhibition at 20 µM ([1]; Trypanosoma cruzi, 20 μM, toxic = L929 death, read-out: percentage of T. cruzi growth inhibition) [%] | EC50, growth of T. cruzi amastigotes and trypomastigotes [1] | inhibition at 4 µM [2] [%] | inhibition at 20 µM [2] [%] | inhibition at 0.8 µM [3] [%] | inhibition at 4 µM [3] [%] | inhibition at 20 µM [3] [%] | CC50 at 96 h (in vitro) [µM] | percentage of T. cruzi growth inhibition ([1]; 10 μM, toxic = L929 death) | percentage of T. cruzi growth inhibition ([1]; 20 μM, toxic = L929 death)
O=C(/C=C/c1ccc(CSc2nc(Cl)cc(-c3ccccc3)n2)cc1)NO [Compound 2, 3-(4-(((4-Chloro-6-phenylpyrimidin-2-yl)thio)methyl)phenyl)-N-hydroxy Acrylamide] | 4.11 | toxic | toxic | toxic | 0 | 0 | 0 | 0 | 3 | inactive | 11.3 ± 1.7 | 83.3 ± 1.8 | 16.4 ± 18.6 | 7.8 ± 1.1 | 60.2 ± 1.4 | 20 |  | 
CN(C)Cc1ccc(S(=O)(=O)n2ccc3cc(/C=C/C(=O)NO)ccc32)cc1 [Compound 6, 3-(1-((4-((Dimethylamino)methyl)phenyl)sulfonyl)-1H-indol-5-yl)-N-hydroxy Acrylamide] | 3.49 | toxic | toxic | toxic | 0 | 0 | 3 |  |  | inactive | 9.2 ± 3.4 | 60.1 ± 1.7 | 39.9 ± 2.1 | 0.1 ± 0.8 | 39.6 ± 5.5 | 5 | toxic | toxic
